Target: T1, hBK1 receptor (Homo sapiens, UniProt P46663)
T1 construct: expressed in transfected cells; host or cells: CHO cells
T1 sequence (P46663 1-353): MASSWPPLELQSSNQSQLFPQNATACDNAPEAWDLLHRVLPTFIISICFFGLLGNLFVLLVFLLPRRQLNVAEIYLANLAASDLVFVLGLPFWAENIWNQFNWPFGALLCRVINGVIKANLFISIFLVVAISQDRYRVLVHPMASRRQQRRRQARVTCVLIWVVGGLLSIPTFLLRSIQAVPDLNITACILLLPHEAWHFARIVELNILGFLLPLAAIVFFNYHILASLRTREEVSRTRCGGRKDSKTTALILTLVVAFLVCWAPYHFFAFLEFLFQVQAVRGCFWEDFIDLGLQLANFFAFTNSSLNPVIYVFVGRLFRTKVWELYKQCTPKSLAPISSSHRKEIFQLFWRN
Test: hBK1 receptor binding (displacement of [3H]-kallidin (DesArg10, Leu9) from membranes of CHO cells expressing the hBK1 receptor)
Conditions: CHO cell membranes expressing hBK1 receptor; 0.5 to 1.0 nM [3H]-kallidin (DesArg10, Leu9); 60 minutes at room temperature
Experimental: Description of the Method of hBK1 Receptor Binding
CHO cells expressing the hBK1 receptor are cultivated in Dulbecco's modified medium. The medium from confluent cultures is removed and the cells are washed with PBS buffer, scraped off and isolated by centrifugation. The cells are then homogenized in suspension and the homogenate is centrifuged and resuspended. The protein content is determined and the membrane preparation obtained in this manner is then frozen at −80° C.
After thawing, 200 μl of the homogenate (50 to 100 μg of proteins/assay) are incubated at room temperature with 0.5 to 1.0 nM of kallidin (DesArg10, Leu9), [3,4-prolyl-3,43H(N)] and increasing concentrations of the test substance in a total volume of 250 μl for 60 minutes. The incubation is terminated by rapid filtration through GF/B glass fibre filters which had been pretreated with polyethyleneimine (0.3%). The protein-bound radioactivity is measured in a TopCount NXT. Non-specific binding is defined as radioactivity bound in the presence of 1.0 μM of kallidin (DesArg10, Leu9), [3,4-prolyl-3,43H(N)]. The concentration/binding curve is analysed using a computer-assisted nonlinear curve fitting. The Ki which corresponds to the test substance is determined using the data obtained in this manner. […]

SMILES | Ki [nM]
CN(CCC(=O)Nc1ccc(N2CCN(c3ccncc3)CC2)cc1)S(=O)(=O)c1cccc(Cl)c1Cl [(1)] | 6.2
COc1cc(C)c(S(=O)(=O)N(C)CCOCC(=O)N(C)[C@H]2CC[C@@H](N3CCN(C)CC3)CC2)c(C)c1 [(589)] | 5.1
COc1cc(C)c(S(=O)(=O)N(C)CC(=O)NCC(=O)N(C)Cc2ccc(NCCN(C)C)cc2)c(C)c1 [(492)] | 3.2
COc1cc(C)c(S(=O)(=O)N(C)CCOCC(=O)N(C)[C@H]2CC[C@@H](CCN3CCCC3)CC2)c(C)c1 [(435)] | 1.5
COc1cc(C)c(S(=O)(=O)N(C)CCOCC(=O)N(C)[C@@H]2CCN(C3CCN(C(C)C)CC3)C2)c(C)c1 [(398)] | 0.74
COc1cc(C)c(S(=O)(=O)N(C)CCOCC(=O)N(C)Cc2ccc(N3CC[C@@H](N(C)C)C3)cc2)c(C)c1 [(385)] | 6.4
COc1cc(C)c(S(=O)(=O)N(C)CCOCC(=O)N(C)Cc2ccc3nc(NCCN(C)C)ccc3c2)c(C)c1 [(368)] | 1.52
COc1cc(C)c(S(=O)(=O)N(C)CCOCC(=O)N(C)C(C)c2ccc3c(c2)CCN(C)CC3)c(C)c1 (centres unmarked) [(386)] | 6.3
COc1cc(Cl)cc(Cl)c1S(=O)(=O)N(C)CCOCC(=O)N(C)[C@@H]1CCN(C2CCN(C)CC2)C1 [(469)] | 8
CCN1CCC(N2CC[C@@H](N(C)C(=O)COCCN(C)S(=O)(=O)c3c(C)cc(OC)cc3C)C2)CC1 [(400)] | 0.79
COc1cc(C)c(S(=O)(=O)N(C)CCOCC(=O)N(C)[C@H]2CC[C@H](CCN3CCCC3)CC2)c(C)c1 [(439)] | 7.5
COc1cc(C)c(S(=O)(=O)N(C)CCOCC(=O)N(C)[C@H]2CC[C@@H](CN3CC[C@H](N4CCCC4)C3)CC2)c(C)c1 [(471)] | 4.1
COc1cc(C)c(S(=O)(=O)N(C)CCOCC(=O)N(C)CC2CCN(C(=O)CCN3CCCC3)CC2)c(C)c1 [(475)] | 2.4
COc1cc(C)c(S(=O)(=O)N(C)CCOCC(=O)N(C)C2CCCN(C3CCN(C)CC3)CC2)c(C)c1 (centres unmarked) [(451)] | 9
COc1cc(C)c(S(=O)(=O)N(C)CCOCC(=O)N(C)[C@H]2CC[C@@H](OCCN(C)C)CC2)c(C)c1 [(613)] | 9.7
COc1cc(C)c(S(=O)(=O)N(C)CCOCC(=O)N(C)C[C@H]2CC[C@@](C)(CN3CCC3)C2(C)C)c(C)c1 [(621)] | 5.8
COc1cc(C)c(S(=O)(=O)N(C)CCOCC(=O)N(C)Cc2ccc(N3CCC(N4CCCC4)C3)cc2)c(C)c1 (centres unmarked) [(353)] | 6.1
COc1cc(C)c(S(=O)(=O)N(C)CCOCC(=O)N(C)C[C@H]2CC[C@@H](N(C)CCN(C)C)CC2)c(C)c1 [(428)] | 6.3
COc1cc(C)c(S(=O)(=O)N(C)CCOCC(=O)N(C)[C@H]2CCN(C3CCN(C(C)C)CC3)C2)c(C)c1 [(399)] | 3
COc1cc(C)c(S(=O)(=O)N(C)CCOCC(=O)N(C)C2CCC(N3CCC(CN4CCCC4)CC3)CC2)c(C)c1 (centres unmarked) [(419)] | 0.65
COc1cc(C)c(S(=O)(=O)N(C)CCOCC(=O)N(C)C(C)[C@H]2CC[C@H](CN3CCCC3)CC2)c(C)c1 (some centres unmarked) [(616)] | 3.7

SMILES | Ki [nM]
COc1cc(C)c(S(=O)(=O)N(C)CCOCC(=O)N(C)Cc2ccc(-c3cn(C)c(C)n3)cc2)c(C)c1 [(67)] | 0.4
CNc1ccc2cc(CN(C)C(=O)COCCN(C)S(=O)(=O)c3c(C)cc(OC)cc3C)ccc2n1 [(367)] | 2.7
COc1cc(C)c(S(=O)(=O)N(C)CCOCC(=O)N(C)[C@H]2CC[C@@H](CCN3CCC3)CC2)c(C)c1 [(592)] | 2.8
COc1cc(C)c(S(=O)(=O)N(C)CCOCC(=O)N(C)[C@@H]2CCN(C(=O)CCN3CCCC3)C2)c(C)c1 [(580)] | 6.2
COc1cc(C)c(S(=O)(=O)N(C)CCOCC(=O)N(C)Cc2ccc(-c3cn(C)cn3)cc2)c(C)c1 [(66)] | 4.6
COc1cc(C)c(S(=O)(=O)N(C)CCOCC(=O)N(C)Cc2ccc(N3CCC(N(C)C)C3)cc2Cl)c(C)c1 (centres unmarked) [(356)] | 8.8
COc1cc(C)c(S(=O)(=O)N(C)CCOCC(=O)N(C)[C@H]2CC[C@@H](OCCN3CCCC3)CC2)c(C)c1 [(614)] | 2
COc1cc(C)c(S(=O)(=O)N(C)CCOCC(=O)N(C)CC2CCC(N3CCCC(N(C)C)C3)CC2)c(C)c1 (centres unmarked) [(587)] | 9.5
COc1cc(C)c(S(=O)(=O)N(C)CCOCC(=O)N(C)Cc2ccc(N3CCCC3CN(C)C)cc2)c(C)c1 (centres unmarked) [(335)] | 9.37
COc1cc(C)c(S(=O)(=O)N(C)CCCCC(=O)N(C)CC2CCN(c3ccncc3)CC2)c(C)c1 [(130)] | 5.7
COc1cc(C)c(S(=O)(=O)N(C)CCOCC(=O)N(C)[C@H]2CC[C@@H](CCN3CCN(C)CC3)CC2)c(C)c1 [(464)] | 1.5
COc1cc(C)c(S(=O)(=O)N(C)CCOCC(=O)N(C)Cc2ccc(CNC3CCCC3)cc2)c(C)c1 [(72)] | 2.8
COc1cc(C)c(S(=O)(=O)N(C)CCOCC(=O)N(C)CC2CCC(NCCN(C)C)CC2)c(C)c1 (centres unmarked) [(372)] | 2.39
COc1cc(C)c(S(=O)(=O)N(C)CCOCC(=O)N(C)C[C@H]2CC[C@@H](N3CCN(C)CC3)CC2)c(C)c1 [(584)] | 9
COc1cc(C)c(S(=O)(=O)N(C)CCOCC(=O)N(C)[C@@H]2CCN(C3CCN(C4CCCC4)CC3)C2)c(C)c1 [(478)] | 1
COc1cc(C)c(S(=O)(=O)N(C)CCC(=O)Nc2cc(F)c(N3CCC(N(C)C)CC3)cc2C)c(C)c1 [(183)] | 6.6
COc1cc(C)c(S(=O)(=O)N(C)CCOCC(=O)N(C)Cc2ccc(CN3CCCC3)cc2)c(C)c1 [(109)] | 6
COc1cc(C)c(S(=O)(=O)N(C)CCOCC(=O)N(C)Cc2ccc(-c3c[nH]c(C)n3)cc2)c(C)c1 [(117)] | 0.99
COc1cc(C)c(S(=O)(=O)N(C)CCOCC(=O)N(C)C2CCN(C3CCN(C)CC3)CC2)c(C)c1 [(397)] | 7.5
COc1cc(C)c(S(=O)(=O)N(C)CCOCC(=O)N(C)Cc2ccc(C3CCN(C)CC3)cc2)c(C)c1 [(326)] | 6.5
COc1cc(C)c(S(=O)(=O)N(C)CCOCC(=O)N(C)Cc2ccc(NCCN(C)C)cc2)c(C)c1 [(325)] | 0.94

SMILES | Ki [nM]
COc1cc(C)c(S(=O)(=O)N(C)CCOCC(=O)N(C)C[C@]2(C)CC[C@H](CN3CCC3)C2(C)C)c(C)c1 [(582)] | 9.3
CCN(CC)CC1CCN(c2ccc(NC(=O)CCN(C)S(=O)(=O)c3c(C)cc(OC)cc3C)cc2Cl)CC1 [(181)] | 7.1
COc1cc(C)c(S(=O)(=O)N(C)CCC(=O)Nc2ccc(N3CCN(c4ccncc4)CC3)cc2)c(C)c1 [(13)] | 2.1
COc1cc(C)c(S(=O)(=O)N(C)CCOCC(=O)N(C)[C@H]2CC[C@@H](CN3CC[C@@H](N(C)C)C3)CC2)c(C)c1 [(441)] | 4.6
COc1cc(C)c(S(=O)(=O)N(C)CCOCC(=O)N(C)[C@H]2CC[C@@H](CCN(C)CC3CC3)CC2)c(C)c1 [(463)] | 2
COc1cc(C)c(S(=O)(=O)N(C)CCOCC(=O)N(C)CC2CCN(c3ccnc(C)c3)CC2)c(C)c1 [(53)] | 2.4
COc1cc(C)c(S(=O)(=O)N(C)CCOCC(=O)N(C)[C@@H]2CCN(C(=O)CCN3CCCCC3)C2)c(C)c1 [(623)] | 3.4
COc1cc(C)c(S(=O)(=O)N(C)CCC(=O)Nc2cc(C)c(N3CCC(N(C)C)CC3)cc2Cl)c(C)c1 [(186)] | 3.4
COc1cc(C)c(S(=O)(=O)N(C)CCOCC(=O)N(C)Cc2ccc(N3CCC(N4CCCC4)C3)cc2Cl)c(C)c1 (centres unmarked) [(445)] | 5.6
COc1cc(C)c(S(=O)(=O)N(C)CCOCC(=O)N(C)[C@@H]2CCN([C@H]3CC[C@@H](N4CCCC4)CC3)C2)c(C)c1 [(448)] | 0.82
COc1cc(C)c(S(=O)(=O)N(C)CCOCC(=O)N(C)[C@H]2CC[C@@H](CN3CC[C@@H](N4CCCC4)C3)CC2)c(C)c1 [(472)] | 0.68
COc1cc(C)c(S(=O)(=O)N(C)CCOCC(=O)N(C)C[C@@H]2CCN(CCCN3CCCC3)C2)c(C)c1 [(576)] | 0.85
COc1cc(C)c(S(=O)(=O)N(C)CCOCC(=O)N(C)C2CCc3cc(OCCN4CCCC4)ccc32)c(C)c1 (centres unmarked) [(418)] | 1.2
COc1cc(C)c(S(=O)(=O)N(C)CCOCC(=O)N(C)Cc2ccc(N(C)CCN(C)C)cc2C)c(C)c1 [(389)] | 3.7
COc1cc(C)c(S(=O)(=O)N(C)CCOCC(=O)N(C)CC2CCC(N3CCC(N(C)C)CC3)CC2)c(C)c1 (centres unmarked) [(586)] | 5.1
COc1cc(C)c(S(=O)(=O)N(C)CCOCC(=O)N(C)CC2CCN(C3CCN(C)CC3)CC2)c(C)c1 [(384)] | 9.3
COc1cc(C)c(S(=O)(=O)N(C)CCC(=O)Nc2ccc(N3CCN(c4ccncc4)CC3)nc2)c(C)c1 [(22)] | 7
COc1cc(C)c(S(=O)(=O)N(C)CCOCC(=O)N(C)[C@H]2CC[C@@H](CCN(C)C)CC2)c(C)c1 [(620)] | 5.9
COc1cc(C)c(S(=O)(=O)N(C)CCOCC(=O)N(C)[C@H]2CC[C@@H](CN3CCC[C@@H](N(C)C)C3)CC2)c(C)c1 [(476)] | 2.35
COc1cc(C)c(S(=O)(=O)N(C)CCOCC(=O)N(C)[C@@H]2CCN(C3CCN(C4CCC4)CC3)C2)c(C)c1 [(577)] | 0.34
